{"source": "paper PMC4001449", "about": "“Thienoquinolines as Novel Disruptors of the PKCε/RACK2 Protein–Protein Interaction” (Journal of Medicinal Chemistry, 2014)", "key": {"PKCε/RACK2 interaction": {"biological_target": "T1, PKCε/RACK2 interaction (Homo sapiens, UniProt P35606)", "T1 sequence (P35606 1-906)": "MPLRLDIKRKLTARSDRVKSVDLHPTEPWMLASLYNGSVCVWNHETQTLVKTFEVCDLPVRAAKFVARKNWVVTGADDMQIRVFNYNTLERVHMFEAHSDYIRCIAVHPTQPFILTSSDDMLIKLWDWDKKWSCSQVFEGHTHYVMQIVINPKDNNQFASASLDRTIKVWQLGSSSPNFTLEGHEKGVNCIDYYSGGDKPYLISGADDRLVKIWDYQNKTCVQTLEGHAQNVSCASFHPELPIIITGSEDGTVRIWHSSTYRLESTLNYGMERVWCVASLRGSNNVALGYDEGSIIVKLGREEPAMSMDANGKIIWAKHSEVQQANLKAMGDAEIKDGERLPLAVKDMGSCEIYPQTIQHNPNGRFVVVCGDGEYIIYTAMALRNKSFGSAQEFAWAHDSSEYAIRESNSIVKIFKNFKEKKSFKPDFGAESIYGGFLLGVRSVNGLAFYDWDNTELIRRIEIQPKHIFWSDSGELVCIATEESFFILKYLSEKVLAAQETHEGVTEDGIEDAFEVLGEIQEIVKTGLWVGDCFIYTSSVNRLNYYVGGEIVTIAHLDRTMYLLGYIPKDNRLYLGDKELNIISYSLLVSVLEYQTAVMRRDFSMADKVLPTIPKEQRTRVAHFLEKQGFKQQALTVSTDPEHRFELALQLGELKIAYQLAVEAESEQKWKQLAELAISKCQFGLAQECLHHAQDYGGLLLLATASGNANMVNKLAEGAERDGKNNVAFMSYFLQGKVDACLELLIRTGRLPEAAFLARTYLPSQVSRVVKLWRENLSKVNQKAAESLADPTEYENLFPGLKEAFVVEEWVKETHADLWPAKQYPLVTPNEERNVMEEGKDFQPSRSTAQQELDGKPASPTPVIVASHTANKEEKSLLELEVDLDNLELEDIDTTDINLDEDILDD", "experiment": "PKCε/RACK2 in vitro binding assay (ELISA-based)", "settings": "25 μM solution, Figure 2A", "method": "Recombinant RACK2 tagged with maltose-binding protein (RACK2-MBP) was purified on columns with amylose resin (New England Biolabs, Ipswich, MA) as described by the manufacturer. The recombinant protein was analyzed by Coomassie Blue staining and Western blotting after SDS–PAGE. Aliquots were stored in liquid nitrogen. The interaction between PKCε and RACK2 was measured using an ELISA-based assay. The 96-well EIA/RIA high binding plates (Costar) were coated with 100 ng of recombinant PKCε (ProQinase, Freiburg, Germany) in buffer A (20 mM Tris-HCl/100 mM NaCl, pH 7.5) at 4 °C on a shaker with gentle agitation overnight. The plate was washed twice with 225 μL/well buffer A. After blocking of unspecific binding sites with 225 μL of sterile-filtered 3% bovine serum albumin (BSA; Sigma-Aldrich, St. Louis, MO) in buffer A at room temperature for 3 h, the plate was washed twice with 225 μL of this buffer. PKCε was left untreated or activated by addition of 60 μg/mL phosphatidylserine (Sigma-Aldrich) and 100 nM TPA (Sigma-Aldrich) in a volume of 50 μL of buffer A for 10 min at 30 °C. […] Color development was measured on a plate reader at a wavelength of 420 nm."}, "HeLa-HLR cells": {"tested_on": "HeLa-HLR cells", "experiment": "Cell proliferation (SRB assay), HeLa-HLR", "type": "cell-based", "settings": "50 μM, 72 h", "method": "HeLa cells containing a tetracycline/doxycycline-inducible constitutively active PKCε were described previously.[26] A PathDetect HeLa HLR cell line was obtained from Agilent, Technologies, Wokingham, U.K. PC-3 prostate adenocarcinoma cells were obtained from Dr. Helmut Klocker, Department of Urology, Innsbruck Medical University. For cell proliferation HeLa HLR and PC-3 cells were seeded at ∼10 000 cells per well in 96-well plates. After 4 h various concentrations of 8 were added and left for 72 h. Cell proliferation was determined by the SRB assay.[35]"}, "NUAK1": {"biological_target": "T2, NUAK1 (Homo sapiens, UniProt O60285)", "T2 sequence (O60285 1-661)": "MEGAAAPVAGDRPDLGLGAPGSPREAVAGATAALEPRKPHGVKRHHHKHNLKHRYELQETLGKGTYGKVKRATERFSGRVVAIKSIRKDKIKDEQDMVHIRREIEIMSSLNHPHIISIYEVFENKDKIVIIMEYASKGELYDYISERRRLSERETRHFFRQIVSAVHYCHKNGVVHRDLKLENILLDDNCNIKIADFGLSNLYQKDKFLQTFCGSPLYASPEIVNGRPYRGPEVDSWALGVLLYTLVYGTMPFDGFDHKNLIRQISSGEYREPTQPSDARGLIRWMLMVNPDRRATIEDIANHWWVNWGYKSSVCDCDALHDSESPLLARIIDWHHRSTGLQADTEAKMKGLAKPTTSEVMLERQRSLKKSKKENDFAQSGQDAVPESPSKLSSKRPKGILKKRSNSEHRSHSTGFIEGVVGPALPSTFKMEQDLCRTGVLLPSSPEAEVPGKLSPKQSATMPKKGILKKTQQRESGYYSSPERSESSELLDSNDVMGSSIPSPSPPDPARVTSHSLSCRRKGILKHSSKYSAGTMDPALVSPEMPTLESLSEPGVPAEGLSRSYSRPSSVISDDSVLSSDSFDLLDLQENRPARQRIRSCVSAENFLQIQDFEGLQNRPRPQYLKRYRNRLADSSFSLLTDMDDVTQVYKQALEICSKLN", "experiment": "Kinase profiling (Dundee), NUAK1", "type": "biochemical", "settings": "25 μM solution"}}, "data": [{"smiles": "CC(=O)c1cccc(NC(=O)c2sc3nc4cc5c(cc4cc3c2N)OCCO5)c1", "note": "[Compound 8, N-(3-acetylphenyl)-9-amino-2,3-dihydro-1,4-dioxino[2,3-g]thieno[2,3-b]quinoline-8-carboxamide]", "values": [{"measurement": "PKCε/RACK2 interaction, % of untreated controls", "setting": "PKCε/RACK2 interaction", "result": "approximately 10 % of untreated controls"}, {"measurement": "Inhibition of cell proliferation", "setting": "HeLa-HLR cells", "result": "did not show any inhibition"}, {"measurement": "NUAK1 activity, % of control", "setting": "NUAK1", "result": "49 % of control"}]}]}
